≈ marks a conversion by molar mass, not a printed value. Where “and” joins values, the source holds several entries; their conditions need not be identical. Identical values can stand only once.
Key:
[1] = test system: S. aureus clinical isolates; test: microbe, parasite or virus in culture; format: cell-based; settings: Staphylococcus aureus
S. aureus = test: pH-dependent MIC determination; format: cell-based; settings: for MIC: Staphylococcus aureus
Protocol: MICs were determined using a standard serial broth microdilution technique according to the CLSI guidelines. Briefly, bacterial strains were inoculated onto MHBII agar plates and were grown overnight at 37 °C. Next, 3 individual colonies from each strain were inoculated into 1 mL MHBII medium and propagated at 37 °C, 250 rpm overnight. In the cases of Enterococcus and Streptococcus sp., cells were plated to BHI agar plates, and BHI broth was used to determine MICs. […] Following dilutions, each well was seeded with 5×10^4 bacterial cells. All measurements were performed in 3 parallel replicates and to avoid possible edge effects in microwell plates, side rows (A and H) were filled with sterile medium. Following inoculations, plates were covered with lids and wrapped in polyethylene plastic bags to minimize evaporation but allow for O2 transfer. Plates were incubated at 37 °C under continuous shaking at 150 rpm for 18 hours. After incubation, OD600 of each well was measured using a BioTek Synergy 2 microplate reader.

[2] = test system: S. aureus ATCC 700699 VISA; test: Time-dependent killing; format: cell-based; settings: for Time-kill bacterial count: 10xMIC; for Colony numbers: time-kill raw counts, Samples 1-3
Protocol: Time-dependent killing experiments were performed as previously. S. aureus ATCC 700699 VISA cells were inoculated to MHBII agar plates and grown overnight at 37 °C. Next, 3 independent stationer-phase starter cultures were grown at 37 °C, 250 rpm overnight, in 3 × 1 mL MHBII broth. Next, 100-fold diluted cultures were prepared from each in 20 mL fresh MHBII medium and grown at 37 °C, 250 rpm until early exponential phase (OD600 = 0.3–0.4; i.e., 5 × 10^5 cells/mL). […] Cells were treated with antibiotics in Erlenmeyer flasks at 37 °C, 150 rpm for 48 hours. […] Next, 50 μL from each dilution were plated on MHBII agar plates, and plates were incubated overnight at 37 °C to calculate CFU per mL.

[3] = test system: S. aureus USA300 (MRSA) BAA1556, S. aureus (VRSA) ECL2963646, S. aureus Mu50 (VISA) ATCC 700699; test: S. aureus dermal infection model; format: in vivo, ICR mice; settings: 2% treatment, individual animals
Protocol: The testing strains, S. aureus USA300 (MRSA) BAA1556, S. aureus (VRSA) ECL2963646, and S. aureus Mu50 (VISA) ATCC 700699 were obtained from frozen stocks and thawed at room temperature. Next, an aliquot of 0.2 mL from each stock was transferred to 20 mL BHI broth and incubated at 37 °C with shaking (120 rpm) for 8 hours. Cells in 20 mL culture were pelleted by centrifugation, 3,500g for 15 minutes, and then resuspended in 10 mL cold PBS, then cells were diluted in PBS to obtain the inoculum sizes of 1×10^5 or 1× 10^6 CFU/mL, based on the testing strain’s virulence. In all cases, the actual colony counts were determined by plating dilutions in at least 3 replicates onto MHBII agar plates followed by 24 hours’ incubation and colony counting.
For dermal infections, groups of 5 female ICR mice weighing 24 ± 4 g, provided by BioLasco Taiwan (under a Charles River Laboratories Technology Licensee), were used. Animals were acclimated for 3 days prior to use and were confirmed to be in good health. Prior to infection, animals were anesthetized with etomidate-lipuro emulsion (20 mg /10 mL) at 20 mg/kg by IV injection, and then the fur on the back was removed by an electric shaver, and the epidermal layer was disrupted with an abrasive paper according to the protocol developed by Kugelberg and colleagues. Mice were inoculated topically on the wound area with testing strain suspension, 5 μL/mouse. The target inoculation densities were 1×10^5 or 1× 10^6 CFU/mL, based on the corresponding strain’s virulence. Following infection, animals were housed separately. […] Test articles were administered topically (20 μL/mouse) twice daily. One no-treatment group was euthanized at 1 hour after infection for initial bacterial counts, and the other treatment groups were dosed twice daily with the test compounds and sacrificed either at 25 hours or at 73 hours postinfection. Animals were euthanized with CO2 asphyxiation and the infected skin, a 2 cm^2 area, was excised. The skin samples of the wound infection (around 2 cm^2 areas) were then homogenized in 1 mL PBS (pH 7.4) with a polytron homogenizer. A 0.1 mL aliquot of each homogenate was used for serial 10-fold dilutions and plated onto MHBII agar plates for bacterial enumeration. Statistical significance (P <0.05) was assessed with 1-way ANOVA followed by Dunnett’s method. A significant (P <0.05) decrease in the bacterial counts of the treated animals compared with the vehicle control group was considered significant antimicrobial activity.

human red blood cells = test: Haemolysis analysis; settings: human red blood cells, 50 µg/mL, positive control
Protocol: Next, 600 μl of this EDTA-treated blood was washed in TBS buffer (10 mM TRIS, 150 mM NaCl [pH 7.2]) and centrifuged at 1,500 g for 1 minute until the supernatant became colorless. The aliquot of the final pellet (200 μL) was diluted to 5 mL with TBS buffer. […] Next, 100 μL of red blood cell suspension was pipetted into sterile Eppendorf tubes together with 100 μL of 2-fold serial dilution of the compounds (final concentration ranged between 100 μg/mL–0.1 μg/mL in a final volume of 200 μL). The plate was incubated for one hour at 37 °C followed by centrifugation at 1,500 g for 1 minute to sediment all red blood cells. Next, all supernatants were subjected to LDH and Haemolysis-Icterus-Lipaemia (HIL) index determination on a Roche Modular P800 analyzer according to the manufacturer’s instructions. After completion of this step the rest of the supernatants were transferred to sterile 96-well plates for the measurement of their optical density at 560-nm wavelength (in a Multiskan FC microplate reader, Thermo Scientific). Melittin (Bachem) at a concentration of 50 μg/mL, and TBS and 10% DMSO/TBS were served as positive (100% hemolysis) and negative (no hemolysis) controls, respectively.

[4] = S. aureus ATCC 43300 (MRSA), pH 5.5
[5] = S. aureus ATCC 43300 (MRSA), pH 7.3
[6] = S. aureus ATCC 700699 (VISA), pH 5.5
[7] = S. aureus ATCC 700699 (VISA), pH 7.3

CN[C@H](CC(C)C)C(=O)N[C@H]1C(=O)N[C@@H](CC(N)=O)C(=O)N[C@H]2C(=O)N[C@H]3C(=O)N[C@H](C(=O)N[C@H](C(=O)O)c4cc(O)cc(O)c4-c4cc3ccc4O)[C@H](O)c3ccc(c(Cl)c3)Oc3cc2cc(c3O[C@@H]2O[C@H](CO)[C@@H](O)[C@H](O)[C@H]2O[C@H]2C[C@](C)(N)[C@H](O)[C@H](C)O2)Oc2ccc(cc2Cl)[C@H]1O [Vancomycin]
MIC ([1]; ATCC 29213 / MSSA): 1 µg/mL (≈ 0.69 µM)
MIC ([1]; MRSA): 1 µg/mL (≈ 0.69 µM)
MIC ([1]; MRSA / NRS 3 / VISA): 8 µg/mL (≈ 5.52 µM)
MIC ([1]; MRSA / NRS 4 / VISA): 4 µg/mL (≈ 2.76 µM)
MIC ([1]; MRSA / NRS 18 / VISA): 8 µg/mL (≈ 5.52 µM)
MIC ([1]; MRSA / NRS 19 / VISA): 4 µg/mL (≈ 2.76 µM)
MIC ([1]; MRSA / NRS 21 / VISA): 4 µg/mL (≈ 2.76 µM)
MIC ([1]; MRSA / NRS 22 / USA600 / VISA): 8 µg/mL (≈ 5.52 µM)
MIC ([1]; MRSA / NRS 23 / VISA): 4 µg/mL (≈ 2.76 µM)
MIC ([1]; MRSA / NRS 24 / VISA): 8 µg/mL (≈ 5.52 µM)
MIC ([1]; MRSA / NRS 26): 2 µg/mL (≈ 1.38 µM)
MIC ([1]; MRSA / NRS 27 / VISA): 4 µg/mL (≈ 2.76 µM)
MIC ([1]; MRSA / NRS 29 / VISA): 4 µg/mL (≈ 2.76 µM)
MIC ([1]; MRSA / NRS 37 / VISA): 4 µg/mL (≈ 2.76 µM)
MIC ([1]; MRSA / NRS 54): 2 µg/mL (≈ 1.38 µM)
MIC ([1]; MRSA / NRS 56 / VISA): 4 µg/mL (≈ 2.76 µM)
MIC ([1]; MRSA / USA100 / VRSA): > 64 µg/mL
MIC ([1]; MRSA / USA800 / VRSA): > 64 µg/mL
MIC ([1]; MSSA): 1 µg/mL (≈ 0.69 µM)
MIC ([1]; MSSA / NRS 12 / VISA): 4 µg/mL (≈ 2.76 µM)
MIC ([1]; MSSA / NRS 13 / VISA): 4 µg/mL (≈ 2.76 µM)
MIC ([1]; MSSA / NRS 14 / VISA): 4 µg/mL (≈ 2.76 µM)
MIC ([1]; MSSA / NRS 17 / VISA): 8 µg/mL (≈ 5.52 µM)
MIC ([1]; MSSA / NRS 28 / VISA): 4 µg/mL (≈ 2.76 µM)
MIC ([1]; MSSA / NRS 52): 2 µg/mL (≈ 1.38 µM)
MIC ([1]; MSSA / USA100 / VRSA): > 64 µg/mL
potency on shift from pH 7.3 to 5.5 (S. aureus; S. aureus, in words): unaffected
MIC (S. aureus; [4]): 2 µg/mL
MIC (S. aureus; [5]): 1 µg/mL
MIC (S. aureus; [6]): 8 µg/mL
MIC (S. aureus; [7]): 8 µg/mL
Time-kill bacterial count ([2]; time 0 hour): 2.80E+05
Time-kill bacterial count ([2]; time 3 hour): 8.40E+04
Time-kill bacterial count ([2]; time 6 hour): 3.30E+04
Time-kill bacterial count ([2]; time 12 hour): 1.30E+03
Time-kill bacterial count ([2]; time 18 hour): 3.80E+03
Time-kill bacterial count ([2]; time 24 hour): 1.60E+02
Time-kill bacterial count ([2]; time 48 hour): 5.30E+01
Colony numbers ([2]; time 0 h, Dilution 100): 145 and 132 and 137
Colony numbers ([2]; time 3 h, Dilution 100): 48 and 36 and 42
Colony numbers ([2]; time 6 h, Dilution 100): 20 and 13 and 16
Colony numbers ([2]; time 12 h, Dilution 10): 8 and 7 and 4
Colony numbers ([2]; time 18 h, Dilution 1): 231 and 176 and 163
Colony numbers ([2]; time 24 h, Dilution 0.5): 17 and 12 and 18

Nc1nc(-n2cc(C(=O)O)c(=O)c3cc(F)c(N4CC(O)C4)c(Cl)c32)c(F)cc1F [Delafloxacin]
MIC (S. aureus; [4]): 0.0005 µg/mL
MIC (S. aureus; [5]): 0.004 µg/mL
MIC (S. aureus; [6]): 0.032 µg/mL
MIC (S. aureus; [7]): 1 µg/mL

CC(=O)O[C@H]1C[C@@]2(C)[C@@H](C[C@@H](O)[C@H]3[C@@]4(C)CC[C@@H](O)[C@@H](C)[C@@H]4CC[C@@]32C)/C1=C(\CCC=C(C)C)C(=O)O [fusidic acid]
Log CFU/Skin ([3]; Staphylococcus aureus USA300 (MRSA)): 4.49 Log CFU/Skin and 5.07 Log CFU/Skin and 4.98 Log CFU/Skin and 4.68 Log CFU/Skin and 3.36 Log CFU/Skin
Time-kill bacterial count ([2]; time 0 hour): 2.80E+05
Time-kill bacterial count ([2]; time 3 hour): 7.80E+04
Time-kill bacterial count ([2]; time 6 hour): 5.60E+04
Time-kill bacterial count ([2]; time 12 hour): 1.40E+04
Time-kill bacterial count ([2]; time 18 hour): 3.40E+03
Time-kill bacterial count ([2]; time 24 hour): 1.40E+03
Time-kill bacterial count ([2]; time 48 hour): 1.70E+04
Colony numbers ([2]; time 0 h, Dilution 100): 145 and 132 and 137
Colony numbers ([2]; time 3 h, Dilution 100): 47 and 39 and 31
Colony numbers ([2]; time 6 h, Dilution 100): 31 and 21 and 32
Colony numbers ([2]; time 12 h, Dilution 10): 81 and 58 and 73
Colony numbers ([2]; time 18 h, Dilution 1): 223 and 160 and 130
Colony numbers ([2]; time 24 h, Dilution 0.5): 163 and 86 and 158
regrowth of S. aureus populations ([2]; within 48 hours, 10× MIC, in words): regrowth was observable

C/C(=C\C(=O)OCCCCCCCCC(=O)O)C[C@@H]1OC[C@H](C[C@@H]2O[C@H]2[C@@H](C)[C@H](C)O)[C@@H](O)[C@H]1O [mupirocin, reference compound]
Log CFU/Skin ([3]; Staphylococcus aureus ECL 2963646 (VRSA)): 5.07 Log CFU/Skin and 5.72 Log CFU/Skin and 5.58 Log CFU/Skin and 5.64 Log CFU/Skin and 4.16 Log CFU/Skin
Log CFU/Skin ([3]; Staphylococcus aureus Mu50 ATCC 700699 (VISA)): 3.89 Log CFU/Skin and 4.45 Log CFU/Skin and 5.25 Log CFU/Skin and 3.85 Log CFU/Skin and 4.43 Log CFU/Skin

Melittin [reference compound]
Hemolytic Index (human red blood cells): 248
LDH activity (human red blood cells): 525 Unit/mL

From article PMC7561186, “Rational design of balanced dual-targeting antibiotics with limited resistance” (PLoS Biology, 2020)
